The values that follow come from patent US8138189B2, “Substituted benzene compounds as modulators of the glucocorticoid receptor” (Hoffman-La Roche Inc., priority 2009, dated 2012).

For this test, the target named is T1, full length human recombinant glucocorticoid receptor (Homo sapiens, UniProt P04150).
T1 construct: partially purified full length human recombinant glucocorticoid receptor; purchased Panvera/Invitrogen PV4302
T1 sequence (P04150 1-777): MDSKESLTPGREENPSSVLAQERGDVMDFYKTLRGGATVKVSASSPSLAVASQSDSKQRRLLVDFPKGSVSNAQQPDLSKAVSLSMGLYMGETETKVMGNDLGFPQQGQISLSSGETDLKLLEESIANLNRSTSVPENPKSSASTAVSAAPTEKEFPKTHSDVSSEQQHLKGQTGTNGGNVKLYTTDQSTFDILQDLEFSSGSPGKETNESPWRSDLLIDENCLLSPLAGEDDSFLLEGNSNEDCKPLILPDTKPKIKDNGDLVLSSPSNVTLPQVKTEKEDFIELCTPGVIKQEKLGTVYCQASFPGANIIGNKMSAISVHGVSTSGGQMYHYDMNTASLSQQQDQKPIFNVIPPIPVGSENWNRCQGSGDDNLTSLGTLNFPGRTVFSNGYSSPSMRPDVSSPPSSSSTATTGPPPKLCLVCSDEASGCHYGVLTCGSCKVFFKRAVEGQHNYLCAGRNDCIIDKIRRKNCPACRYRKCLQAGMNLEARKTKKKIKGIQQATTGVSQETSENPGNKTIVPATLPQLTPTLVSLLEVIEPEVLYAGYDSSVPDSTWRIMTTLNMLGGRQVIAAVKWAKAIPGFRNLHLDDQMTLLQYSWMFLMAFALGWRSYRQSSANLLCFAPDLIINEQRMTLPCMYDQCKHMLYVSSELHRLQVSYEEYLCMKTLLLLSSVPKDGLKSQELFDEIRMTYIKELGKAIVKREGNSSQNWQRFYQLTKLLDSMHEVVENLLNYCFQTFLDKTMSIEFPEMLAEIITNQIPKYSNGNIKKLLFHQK
Put plainly: Glucocorticoid Receptor Binding Assay (fluorescence polarization competitor assay, Fluormone GS Far Red tracer). The procedure, abridged: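 Serially diluted compounds competed with the tight-binding far-red fluorescent ligand for recombinant full-length human glucocorticoid receptor plus GR-stabilizing peptide (screening buffer pH 7.4; 3 h, 22 °C, dark). Polarization (610-660 nm) gave IC50 via sigmoidal dose-response fits, and Ki was derived by Cheng-Prusoff from tracer concentration and Kd.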
A general note: In fluorescence polarisation assays a small probe gives low polarisation when free and higher when bound to something large.

Consider `Cc1cc([C@](O)([C@H](C)c2ccc(OCc3cnn(CC(=O)O)c3)cc2Cl)C(F)(F)F)ccn1` (stereo in doubt) [Example 103, (4-{3-Chloro-4-[3,3,3-trifluoro-2-hydroxy-1-methyl-2-(2-methyl-pyridin-4-yl)-propyl]-phenoxymethyl}-pyrazol-1-yl)-acetic acid], for which the Ki (usually a measure of affinity in units of concentration, obtained from inhibition or displacement) was found to be 68.3 nM.

With `COC(=O)c1cnc(OCc2ccc([C@@H](C)[C@@](O)(c3ccnc(Cl)c3)C(F)(F)F)c(Cl)c2)cn1` (stereo in doubt) [Example 120, 5-{3-Chloro-4-[2-(2-chloro-pyridin-4-yl)-3,3,3-trifluoro-2-hydroxy-1-methyl-propyl]-benzyloxy}-pyrazine-2-carboxylic acid methyl ester], the Ki is 9.7 nM.

For `C[C@H](c1ccc(COc2cnc(C(=O)O)cn2)cc1Cl)[C@@](O)(c1ccnc(Cl)c1)C(F)(F)F` (stereo in doubt) [Example 121, 5-{3-Chloro-4-[2-(2-chloro-pyridin-4-yl)-3,3,3-trifluoro-2-hydroxy-1-methyl-propyl]-benzyloxy}-pyrazine-2-carboxylic acid], the Ki was determined as 18.8 nM.

Turning to `COC(=O)c1ccc(OCc2ccc([C@@H](C)[C@@](O)(c3ccnc(Cl)c3)C(F)(F)F)c(Cl)c2)nn1` (stereo in doubt) [Example 122, 6-{3-Chloro-4-[2-(2-chloro-pyridin-4-yl)-3,3,3-trifluoro-2-hydroxy-1-methyl-propyl]-benzyloxy}-pyridazine-3-carboxylic acid methyl ester], the Ki worked out at 10.7 nM.

For the compound `C[C@H](c1ccc(COc2ccc(C(=O)O)nn2)cc1Cl)[C@@](O)(c1ccnc(Cl)c1)C(F)(F)F` (stereo in doubt) [Example 123, 6-{3-Chloro-4-[2-(2-chloro-pyridin-4-yl)-3,3,3-trifluoro-2-hydroxy-1-methyl-propyl]-benzyloxy}-pyridazine-3-carboxylic acid], the Ki came to 34.3 nM.

Regarding `COC(=O)c1cnc(OCc2ccc([C@@H](C)[C@@](O)(c3ccnc(Cl)c3)C(F)(F)F)c(Cl)c2)nc1` (stereo in doubt) [Example 124, 2-{3-Chloro-4-[2-(2-chloro-pyridin-4-yl)-3,3,3-trifluoro-2-hydroxy-1-methyl-propyl]-benzyloxy}-pyrimidine-5-carboxylic acid methyl ester], the Ki came out at 8.8 nM.

As for `C[C@H](c1ccc(COc2ncc(C(=O)O)cn2)cc1Cl)[C@@](O)(c1ccnc(Cl)c1)C(F)(F)F` (stereo in doubt) [Example 125, 2-{3-Chloro-4-[2-(2-chloro-pyridin-4-yl)-3,3,3-trifluoro-2-hydroxy-1-methyl-propyl]-benzyloxy}-pyrimidine-5-carboxylic acid], the Ki was 24.7 nM.

For `COC(=O)c1ccc(OCc2ccc([C@@H](C)[C@@](O)(c3ccnc(Cl)c3)C(F)(F)F)c(Cl)c2)nc1` (stereo in doubt) [Example 126, 6-{3-Chloro-4-[2-(2-chloro-pyridin-4-yl)-3,3,3-trifluoro-2-hydroxy-1-methyl-propyl]-benzyloxy}-nicotinic acid methyl ester], the Ki came out at 8.5 nM.

As for `C[C@H](c1cc(Oc2cnc(C(=O)O)cn2)ccc1Cl)[C@@](O)(c1ccnc(Cl)c1)C(F)(F)F` (stereo in doubt) [Example 137, 5-{4-Chloro-3-[2-(2-chloro-pyridin-4-yl)-3,3,3-trifluoro-2-hydroxy-1-methyl-propyl]-phenoxy}-pyrazine-2-carboxylic acid], the Ki is 1580 nM.

With `C[C@H](c1cc(Oc2ccc(C(=O)O)nn2)ccc1Cl)[C@@](O)(c1ccnc(Cl)c1)C(F)(F)F` (stereo in doubt) [Example 139, 6-{4-Chloro-3-[2-(2-chloro-pyridin-4-yl)-3,3,3-trifluoro-2-hydroxy-1-methyl-propyl]-phenoxy}-pyridazine-3-carboxylic acid], the Ki worked out at 404 nM.

`C[C@@H](c1ccc(OCc2ccc(C(=O)O)cc2)cc1Cl)[C@](O)(c1cnc2ccccc2c1)C(F)(F)F` (stereo in doubt) [Example 141, 4-[3-Chloro-4-(3,3,3-trifluoro-2-hydroxy-1-methyl-2-quinolin-3-yl-propyl)-phenoxymethyl]-benzoic acid]: the Ki worked out at 1.5 nM.

With `COC(=O)C1(c2ccc(COc3ccc([C@H](C)[C@](O)(c4cnc5ccccc5c4)C(F)(F)F)c(Cl)c3)cc2)CC1` (stereo in doubt) [Example 142, 1-{4-[3-Chloro-4-(3,3,3-trifluoro-2-hydroxy-1-methyl-2-quinolin-3-yl-propyl)-phenoxymethyl]-phenyl}-cyclopropanecarboxylic acid methyl ester], the Ki came to 6.6 nM.

Turning to `C[C@@H](c1ccc(OCc2ccc(C3(C(=O)O)CC3)cc2)cc1Cl)[C@](O)(c1cnc2ccccc2c1)C(F)(F)F` (stereo in doubt) [Example 143, 1-{4-[3-Chloro-4-(3,3,3-trifluoro-2-hydroxy-1-methyl-2-quinolin-3-yl-propyl)-phenoxymethyl]-phenyl}-cyclopropanecarboxylic acid], the Ki amounted to 4.6 nM.

As for `COC(=O)Cc1ccc(COc2ccc([C@H](C)[C@](O)(c3cnc4ccccc4c3)C(F)(F)F)c(Cl)c2)cc1` (stereo in doubt) [Example 144, {4-[3-Chloro-4-(3,3,3-trifluoro-2-hydroxy-1-methyl-2-quinolin-3-yl-propyl)-phenoxymethyl]-phenyl}-acetic acid methyl ester], the Ki amounted to 3.6 nM.

Consider `C[C@@H](c1ccc(OCc2ccc(C(=O)O)cc2)cc1Cl)[C@](O)(c1cccc2cnccc12)C(F)(F)F` (stereo in doubt) [Example 148, 4-[3-Chloro-4-(3,3,3-trifluoro-2-hydroxy-2-isoquinolin-5-yl-1-methyl-propyl)-phenoxymethyl]-benzoic acid], for which the Ki was found to be 1.3 nM.

For `C[C@@H](c1ccc(OCc2ccc(CC(=O)O)cc2)cc1Cl)[C@](O)(c1cccc2cnccc12)C(F)(F)F` (stereo in doubt) [Example 149, {4-[3-Chloro-4-(3,3,3-trifluoro-2-hydroxy-2-isoquinolin-5-yl-1-methyl-propyl)-phenoxymethyl]-phenyl}-acetic acid], the Ki is 1.8 nM.

Take `C[C@@H](c1ccc(-c2ccc(C(=O)O)c(F)c2)cc1Cl)[C@](O)(c1cccc2cnccc12)C(F)(F)F` (stereo in doubt) [Example 150, 3′-Chloro-3-fluoro-4′-(3,3,3-trifluoro-2-hydroxy-2-isoquinolin-5-yl-1-methyl-propyl)-biphenyl-4-carboxylic acid]: the Ki was found to be 9.5 nM.

With `C[C@H](c1ccc(Oc2ccc(C(=O)O)cc2)cc1Cl)[C@@](O)(c1ccc(=O)n(C)c1)C(F)(F)F` (stereo in doubt) [Example 152, 4-{3-Chloro-4-[3,3,3-trifluoro-2-hydroxy-1-methyl-2-(1-methyl-6-oxo-1,6-dihydro-pyridin-3-yl)-propyl]-phenoxy}-benzoic acid], the Ki stood at 3.3 nM.

As for `COC(=O)c1ccc(Oc2ccc([C@@H](C)[C@@](O)(c3ccc(=O)n(C)c3)C(F)(F)F)c(Cl)c2)cc1Cl` (stereo in doubt) [Example 153, 2-Chloro-4-{3-chloro-4-[3,3,3-trifluoro-2-hydroxy-1-methyl-2-(1-methyl-6-oxo-1,6-dihydro-pyridin-3-yl)-propyl]-phenoxy}-benzoic acid methyl ester], the Ki was 4.9 nM.
